Measurements reported in patent US20050282755A1, “Compositions having antimicrobial activity and uses thereof” (priority 2004, published 2005).
Values after ≈ are worked out from the molar mass of the structure shown. Read-outs that look alike come from different tables or passages of the source. Non-standard residues stand in square brackets, D forms with d. Residues, ends and D or L forms follow the SMILES beside them. *: point of attachment. Lauroyl = CCCCCCCCCCCC(=O)*

What was measured:
[1] = test system: Propionibacterium acnes ATCC 6919; format: cell-based
Procedure: A second method that was used to determine the MIC in P. acnes for selected antimicrobial agents was a non-standard broth microdilution method that used an assay buffer composed of reinforced Clostridial broth. Briefly, a log-phase bacterial culture of P. acnes was used to inoculate wells of a 96-well plate so that the final inoculum for each well contained 5×10^5 to 1×10^6 CFU/milliliter. […] Plates were incubated for 48-72 hours at 37° C. in a GasPak anaerobic chamber. The lowest concentration of peptide that contained no visible growth as evidenced by a lack of turbidity when compared to the control (no peptide) was determined as the MIC. MIC values that utilized this method of MIC determination are indicated in Table 9 with a subscript letter “d.”

[2] = test system: Salmonella dublin (Lane); conditions: pH 7.4
[3] = test system: Staphylococcus aureus ATCC 29213; conditions: ATCC 29213, pH 7.4
[4] = test system: Staphylococcus aureus ATCC 29213; assay: MIC, NCCLS M7-A6 broth microdilution, cation-adjusted Mueller Hinton broth (Table 9, no superscript); format: cell-based; conditions: ATCC 29213
Outline: (§1)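 CAMHB microdilution; final inoculum 5×10^5–1×10^6 CFU/milliliter from log-phase culture; overnight, 37° C; MIC = lowest peptide conc. without visible growth (turbidity) vs no-peptide control.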

[5] = test system: Pseudomonas aeruginosa ATCC 27853; assay: MIC, NCCLS M7-A6 broth microdilution (Table 9, no superscript); format: cell-based; conditions: ATCC 27853
Outline: as §1

[6] = test system: Escherichia coli ATCC 25922; assay: as above; format: cell-based; conditions: ATCC 25922
Outline: as §1

[7] = test system: Staphylococcus epidermidis ATCC 12228; assay: as above; format: cell-based; conditions: ATCC 12228
Outline: as §1

[8] = test system: Salmonella dublin (Lane); assay: as above; format: cell-based
Outline: as §1

[9] = test system: Candida albicans ATCC 18804; assay: MIC in yeasts, NCCLS M27-A2 broth microdilution, RPMI 1640 (Table 9, letter e); format: cell-based; conditions: ATCC 18804
Outline: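 Broth microdilution per NCCLS M27-A2 in RPMI 1640 with glutamine and phenol red, final inoculum 0.5×10^3–2.5×10^3 CFU/milliliter. Incubated 24 to 48 hours at 37° C; MIC is the lowest peptide concentration with no visible growth.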

[10] = test system: human red blood cells; format: cell-based; conditions: red cells of human
Procedure: Hemoglobin-release assays with human red blood cells (RBC) were performed to determine the hemolytic activity of granulysin peptides. Human RBCs (San Diego Blood Bank, San Diego, Calif.) were washed three times in PBS buffer (8 mM Na2HPO4, 1.5 mM KH2PO4, 140 mM NaCl and 2.7 mM KCl, pH 7.4), resuspended in PBS to the concentration of 5% (v/v). The RBC were then exposed to different peptide compositions at various concentrations (100-6.25 micromolar) and incubated at 37° C. for 60 minutes in a total volume of 120 microliters. Every experiment included a negative control without peptide and maximum control treated with 5% TX-100 for complete hemoglobin release. Samples were centrifuged for 1 minute at 13,000 g to remove debris and intact cells. The hemoglobin-containing supernatant was removed and transferred to a microwell plate. Hemoglobin release was quantified at A540 using a Versamax plate reader (Molecular Devices). The degree of hemolysis is expressed as percentage of hemolysis compared to the […], using the following formula: % hemolysis=(sample−neg. control)/(max. control−neg. control)×100.

Structure (SMILES) | MIC P. acnes [1] | MIC S. dublin [2] | MIC S. aureus [3] | MIC P. aeruginosa [5] | MIC E. coli [6] | MIC S. epidermidis [7] | further results
CSCC[C@@H](NC(=O)[C@@H](Cc1ccccc1)NC(=O)[C@@H](CC(N)=O)NC(=O)[C@@H](CCCNC(=N)N)NC(=O)[C@@H](CO)NC(=O)[C@@H](Cc1c[nH]c2ccccc12)NC(=O)[C@@H](CC(=O)O)NC(=O)[C@@H](CCCNC(=N)N)NC(=O)[C@@H](Cc1c[nH]c2ccccc12)NC(=O)[C@@H](CCCNC(=N)N)NC(=O)[C@@H](CO)NC(=O)[C@@H](CCCNC(=N)N)NC(=O)CNC(=O)[C@H](NC(=O)[C@@H](CCCNC(=N)N)NC(=O)[C@@H](CO)NC(=O)[C@H](NC(=O)[C@@H](CCCNC(=N)N)NC(=O)[C@H](NC(=O)[C@@H](C)NC(=O)[C@@H](C)NC(=O)[C@@H](CCCCN)NC(=O)[C@@H](CCCCN)NC(=O)[C@@H](CCCCN)NC(=O)[C@@H](CCCCN)NC(=O)[C@@H](CCCCN)NC(=O)[C@@H](CCCCN)NC(=O)[C@@H](CCCCN)NC(=O)[C@H](N)CCCCN)[C@H](C)O)C(C)C)[C@H](C)O)C(=O)N[C@H](CCCNC(=N)N)C(N)=O [Peptide 36, H2N-kkkkkkkkaatrvsrtgrsrwrdwsrnfmr-NH2] (H-[dK][dK][dK][dK][dK][dK][dK][dK][dA][dA][dT][dR][dV][dS][dR][dT]G[dR][dS][dR][dW][dR][dD][dW][dS][dR][dN][dF][dM][dR]-NH2) | 25 µg·days/mL | 6b ug/mL | 6b ug/mL |  |  |  | 
CSCC[C@H](NC(=O)[C@H](Cc1ccccc1)NC(=O)[C@H](CC(N)=O)NC(=O)[C@H](CCCNC(=N)N)NC(=O)[C@H](CO)NC(=O)[C@H](Cc1c[nH]c2ccccc12)NC(=O)[C@H](CC(=O)O)NC(=O)[C@H](CCCNC(=N)N)NC(=O)[C@H](Cc1c[nH]c2ccccc12)NC(=O)[C@H](CCCNC(=N)N)NC(=O)[C@H](CO)NC(=O)[C@H](CCCNC(=N)N)NC(=O)CNC(=O)[C@@H](NC(=O)[C@H](CCCNC(=N)N)NC(=O)[C@H](CO)NC(=O)[C@@H](NC(=O)[C@H](CCCNC(=N)N)NC(=O)[C@@H](NC(C)=O)[C@@H](C)O)C(C)C)[C@@H](C)O)C(=O)N[C@@H](CCCNC(=N)N)C(=O)N[C@@H](CCCNC(=N)N)C(=O)N[C@@H](CCCNC(=N)N)C(N)=O [Peptide 13] (Ac-TRVSRTGRSRWRDWSRNFMRRR-NH2) | 25 µg·days/mL | 25b ug/mL | 25b ug/mL |  |  |  | 
CCCCCCCCCCCC(=O)NCCCC[C@@H](NC(=O)[C@@H](CCCNC(=N)N)NC(=O)[C@@H](CCSC)NC(=O)[C@@H](Cc1ccccc1)NC(=O)[C@@H](CC(N)=O)NC(=O)[C@@H](CCCNC(=N)N)NC(=O)[C@@H](CO)NC(=O)[C@@H](Cc1c[nH]c2ccccc12)NC(=O)[C@@H](CC(=O)O)NC(=O)[C@@H](CCCNC(=N)N)NC(=O)[C@@H](Cc1c[nH]c2ccccc12)NC(=O)[C@@H](CCCNC(=N)N)NC(=O)[C@@H](CO)NC(=O)[C@@H](CCCNC(=N)N)NC(=O)CNC(=O)[C@H](NC(=O)[C@@H](CCCNC(=N)N)NC(=O)[C@@H](CO)NC(=O)[C@H](NC(=O)[C@@H](CCCNC(=N)N)NC(=O)[C@H](NC(C)=O)[C@H](C)O)C(C)C)[C@H](C)O)C(N)=O [Peptide 65] (Ac-[dT][dR][dV][dS][dR][dT]G[dR][dS][dR][dW][dR][dD][dW][dS][dR][dN][dF][dM][dR][dK](Lauroyl)-NH2) | 25 µg·days/mL | 6b ug/mL | 3b ug/mL |  |  |  | 
CCCCCCCCCCCC(=O)NCCCC[C@H](NC(=O)[C@H](CCCNC(=N)N)NC(=O)[C@H](CCSC)NC(=O)[C@H](Cc1ccccc1)NC(=O)[C@H](CC(N)=O)NC(=O)[C@H](CCCNC(=N)N)NC(=O)[C@H](CO)NC(=O)[C@H](Cc1c[nH]c2ccccc12)NC(=O)[C@H](CC(=O)O)NC(=O)[C@H](CCCNC(=N)N)NC(=O)[C@H](Cc1c[nH]c2ccccc12)NC(=O)[C@H](CCCNC(=N)N)NC(=O)[C@H](CO)NC(=O)[C@H](CCCNC(=N)N)NC(=O)CNC(=O)[C@@H](NC(=O)[C@H](CCCNC(=N)N)NC(=O)[C@H](CO)NC(=O)[C@@H](NC(=O)[C@H](CCCNC(=N)N)NC(=O)[C@@H](NC(=O)CCCCCCCCCCC)[C@@H](C)O)C(C)C)[C@@H](C)O)C(N)=O [Peptide 66] (Lauroyl-TRVSRTGRSRWRDWSRNFMRK(Lauroyl)-NH2) | 100 µg·days/mL | 25b ug/mL | 25b ug/mL |  |  |  | 
CSCC[C@@H](NC(=O)[C@@H](Cc1ccccc1)NC(=O)[C@@H](CC(N)=O)NC(=O)[C@@H](CCCNC(=N)N)NC(=O)[C@@H](C)NC(=O)[C@@H](Cc1c[nH]c2ccccc12)NC(=O)[C@@H](CC(=O)O)NC(=O)[C@@H](CCCNC(=N)N)NC(=O)[C@@H](Cc1c[nH]c2ccccc12)NC(=O)[C@@H](CCCNC(=N)N)NC(=O)[C@@H](CO)NC(=O)[C@@H](CCCNC(=N)N)NC(=O)CNC(=O)[C@H](NC(=O)[C@@H](CCCNC(=N)N)NC(=O)[C@@H](C)NC(=O)[C@H](NC(=O)[C@@H](CCCNC(=N)N)NC(=O)[C@H](NC(C)=O)[C@H](C)O)C(C)C)[C@H](C)O)C(=O)N[C@H](CCCNC(=N)N)C(N)=O [Peptide 56, Ac-trvartgrsrwrdwarnfmr-NH2] (Ac-[dT][dR][dV][dA][dR][dT]G[dR][dS][dR][dW][dR][dD][dW][dA][dR][dN][dF][dM][dR]-NH2) | 6 µg·days/mL |  |  | >64 µg/mL | 4 µg/mL (≈ 1.53 µM) | 2 µg/mL (≈ 0.763 µM) | MIC S. aureus [4]: >64 µg/mL; MIC S. dublin [8]: 8 µg/mL (≈ 3.05 µM); MIC C. albicans [9]: 64e ug/mL
CCCCCCCCCCCC(=O)N[C@H](C(=O)N[C@@H](CCCNC(=N)N)C(=O)N[C@H](C(=O)N[C@@H](CO)C(=O)N[C@@H](CCCNC(=N)N)C(=O)N[C@H](C(=O)NCC(=O)N[C@@H](CCCNC(=N)N)C(=O)N[C@@H](CO)C(=O)N[C@@H](CCCNC(=N)N)C(=O)N[C@@H](Cc1c[nH]c2ccccc12)C(=O)N[C@@H](CCCNC(=N)N)C(=O)N[C@@H](CC(=O)O)C(=O)N[C@@H](Cc1c[nH]c2ccccc12)C(=O)N[C@@H](CO)C(=O)N[C@@H](CCCNC(=N)N)C(=O)N[C@@H](CC(N)=O)C(=O)N[C@@H](Cc1ccccc1)C(=O)N[C@@H](CCSC)C(=O)N[C@@H](CCCNC(=N)N)C(N)=O)[C@@H](C)O)C(C)C)[C@@H](C)O [Peptide 63] (Lauroyl-TRVSRTGRSRWRDWSRNFMR-NH2) | 12.5 µg·days/mL |  |  | 64 µg/mL (≈ 22.9 µM) | 32 µg/mL (≈ 11.5 µM) | 2 µg/mL (≈ 0.716 µM) | MIC S. aureus [4]: 8 µg/mL (≈ 2.87 µM); MIC S. dublin [8]: 16 µg/mL (≈ 5.73 µM); MIC C. albicans [9]: 16e ug/mL
CCCCCCCCCCCC(=O)N[C@@H](C(=O)N[C@H](CCCNC(=N)N)C(=O)N[C@@H](C(=O)N[C@H](CO)C(=O)N[C@H](CCCNC(=N)N)C(=O)N[C@@H](C(=O)NCC(=O)N[C@H](CCCNC(=N)N)C(=O)N[C@H](CO)C(=O)N[C@H](CCCNC(=N)N)C(=O)N[C@H](Cc1c[nH]c2ccccc12)C(=O)N[C@H](CCCNC(=N)N)C(=O)N[C@H](CC(=O)O)C(=O)N[C@H](Cc1c[nH]c2ccccc12)C(=O)N[C@H](CO)C(=O)N[C@H](CCCNC(=N)N)C(=O)N[C@H](CC(N)=O)C(=O)N[C@H](Cc1ccccc1)C(=O)N[C@H](CCSC)C(=O)N[C@H](CCCNC(=N)N)C(=O)N[C@H](C)C(=O)N[C@H](C)C(=O)N[C@@H](CCCCNC(C)=O)C(N)=O)[C@H](C)O)C(C)C)[C@H](C)O [Peptide 85, Lauryl-trvsrtgrsrwrdwsrnfmraaK(Ac)-NH2] |  |  |  | >64 µg/mL | 8 µg/mL (≈ 2.58 µM) | 2 µg/mL (≈ 0.644 µM) | Hemolytic effect on human red blood cells ([10]; 6.25 Micromolar): 16%; Hemolytic effect on human red blood cells ([10]; 12.5 Micromolar): 26%; Hemolytic effect on human red blood cells ([10]; 25 Micromolar): 36%; Hemolytic effect on human red blood cells ([10]; 50 Micromolar): 53%; Hemolytic effect on human red blood cells ([10]; 100 Micromolar): 83%
